We go through 16 compounds from patent US20260248783A1 (ASCLETIS BIOSCIENCE CO., LTD., priority 2021, published 2026).

Test [1] has as its target T1, extracellular domains of PD-L1 (Homo sapiens, UniProt Q9NZQ7).
T1 construct: specifically dimerize the extracellular domains of PD-L1
As to the kind of experiment: PD-L1 Dimerization. The test is classed as biochemical. The settings on record: PD-L1-Eu and PD-L1-A2, ratio 665 nm/615 nm. The method, then: Example 108. PD-L1 Dimerization
Compounds were tested in biochemical protein-protein interaction assays to determine if they can specifically dimerize the extracellular domains of PD-L1. • (1) Diluted cpd 1:3 in succession in DMSO for each column for 10 samples • (2) Transferred 0.2 μL cpds solution in each row to 384 assay plate using Echo, each column containing 2 replicates • (3) Added 20 μL prepared mixture include PD-L1-Eu and PD-L1-A2 solution to assay plate, centrifuged at 1000 rpm for 1 min. • (4) Incubated at 25° C. for […]. • (5) Read fluorescence signal on Envision 2104 plate reader. • (6) Read the Ratio (665 nm/615 nm) signal on Envision. • (7) Analyzed the raw data using the equation (V. Data analysis)

The next test addresses T2, PD-1/PD-L1 (Homo sapiens, UniProt Q9NZQ7).
T2 construct: Recombinant human PD-L1 protein (19-238) with a Histag at the C-terminus; purchased AcroBiosystems PD1-H5229 (PD-L1); PD1-H5257 (PD-1)
As to the kind of experiment: PD-1/PD-L1 Homogeneous Time-Resolved Fluorescence (HTRF) Binding Assay. The settings on record: PD-1/PD-L1 HTRF activity; 3 nM PD1, 10 nM PD-L1, 25° C. A digest of the protocol: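 Human PD-L1 (19-238, His-tag) 10 nM and PD-1 (25-167, Fc-tag) 3 nM preincubated 40 min with inhibitor in PBS pH 7.4, 0.05% Tween-20, 0.1% BSA, 1% DMSO, 25 °C. Eu-anti-human IgG (1 nM) and anti-His-APC (20 nM) added, 60 min, 665/620 nm ratio; IC50 from percent control activity versus log concentration.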
Background: Time-resolved FRET reads energy transfer from a long-lived donor to a nearby acceptor.

A value given as a limit tells only on which side of the number the result lay.

T2 sequence (Q9NZQ7 19-238): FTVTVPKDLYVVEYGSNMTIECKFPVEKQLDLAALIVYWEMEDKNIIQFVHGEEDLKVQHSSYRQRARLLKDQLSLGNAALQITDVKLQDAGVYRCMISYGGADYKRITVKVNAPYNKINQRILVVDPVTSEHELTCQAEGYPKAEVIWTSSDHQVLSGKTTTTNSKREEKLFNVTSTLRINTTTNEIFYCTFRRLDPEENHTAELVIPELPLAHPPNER
T1 sequence (Q9NZQ7 19-238 limits assumed): as the sequence (Q9NZQ7 19-238) above

`Cc1cn2nc(-c3cccc(-c4cccc(-c5cc6c(=O)n(CCN[C@H]7C[C@@H](O)C7)c(C)cn6n5)c4Cl)c3Cl)cc2c(=O)n1CCN[C@H]1C[C@@H](O)C1` [Compound 91, 2,2′-(2,2′-dichloro-[1,1′-biphenyl]-3,3′-diyl)bis(5-(2-(((1s,3s)-3-hydroxycyclobutyl)amino)ethyl)-6-methylpyrazolo[1,5-a]pyrazin-4(5H)-one)]: the EC50 (as a rule, the concentration at which the effect is half-maximal) in test [1] was less than 50 nM. The half-maximal inhibitory concentration (IC50) (commonly the point on the concentration scale where inhibition reaches its midpoint) on PD-1/PD-L1 was less than 10 nM.

Consider `Cn1c(CN2CC[C@H](C(=O)O)C2)cn2cc(-c3cccc(-c4cccc(-c5cc6c(=O)n(C)c(CN7CC[C@H](C(=O)O)C7)cn6c5)c4Cl)c3Cl)cc2c1=O` [Compound 43, (3S,3'S)-1,1′-(((2,2′-dichloro-[1,1′-biphenyl]-3,3′-diyl)bis(2-methyl-1-oxo-1,2-dihydropyrrolo[1,2-a]pyrazine-7,3-diyl))bis(methylene))bis(pyrrolidine-3-carboxylic acid)], for which the EC50 in test [1] was in the range of 50 to 100 nM. Besides, the IC50 on PD-1/PD-L1 fell in the range of 10 to 100 nM. The corresponding values for `Cc1cn2nc(-c3cccc(-c4cccc(-c5cc6c(=O)n(CCN[C@H]7C[C@H](O)C7)c(C)cn6n5)c4Cl)c3Cl)cc2c(=O)n1CCN[C@H]1C[C@H](O)C1` [Compound 90, 2,2′-(2,2′-dichloro-[1,1′-biphenyl]-3,3′-diyl)bis(5-(2-(((1r,3r)-3-hydroxycyclobutyl)amino)ethyl)-6-methylpyrazolo[1,5-a]pyrazin-4(5H)-one)] are less than 50 nM and less than 10 nM. In the same order, the values of `Cc1cn2cc(-c3cccc(-c4cccc(-c5cc6c(=O)n(CCNC[C@@H]7CCC(=O)N7)c(C)cn6c5)c4Cl)c3Cl)cc2c(=O)n1CCNC[C@@H]1CCC(=O)N1` [Compound 49, 7,7′-(2,2′-dichloro-[1,1′-biphenyl]-3,3′-diyl)bis(3-methyl-2-(2-((((S)-5-oxopyrrolidin-2-yl)methyl)amino)ethyl)pyrrolo[1,2-a]pyrazin-1(2H)-one)] are not below 100 nM and less than 10 nM. Compound `Cc1nn2cc(-c3cccc(-c4cccc(-c5cc6c(=O)n(CCN[C@@H](CO)C(=O)O)c(C)nn6c5)c4Cl)c3Cl)cc2c(=O)n1CCN[C@@H](CO)C(=O)O` [Compound 64, (2S,2'S)-2,2′-((((2,2′-dichloro-[1,1′-biphenyl]-3,3′-diyl)bis(2-methyl-4-oxopyrrolo[2,1-f][1,2,4]triazine-6,3(4H)-diyl))bis(ethane-2,1-diyl))bis(azanediyl))bis(3-hydroxypropanoic acid)] gave an IC50 on PD-1/PD-L1 of 10 to 100 nM. On the same count and under the same terms, for `O=C1CC[C@@H](Cn2ccn3c(F)c(-c4cccc(-c5cccc(-c6nc7c(=O)n(C[C@@H]8CCC(=O)N8)ccn7c6F)c5Cl)c4Cl)nc3c2=O)N1` [Compound 13, 2,2′-(2,2′-dichloro-[1,1′-biphenyl]-3,3′-diyl)bis(3-fluoro-7-(((S)-5-oxopyrrolidin-2-yl)methyl)imidazo[1,2-a]pyrazin-8(7H)-one)] the value was not below 100 nM; for `O=c1c2cc(-c3cccc(-c4cccc(-c5cc6c(=O)n(CCO)cnn6c5)c4Cl)c3Cl)cn2ncn1CCO` [Compound 20, 6,6′-(2,2′-dichloro-[1,1′-biphenyl]-3,3′-diyl)bis(3-(2-hydroxyethyl)pyrrolo[2,1-f][1,2,4]triazin-4(3H)-one)], not below 100 nM.

As for `Cc1cn2cc(-c3cccc(-c4cccc(-c5cc6c(=O)n(C[C@H]7CCCN7)c(C)cn6c5)c4Cl)c3Cl)cc2c(=O)n1C[C@H]1CCCN1` [Compound 39, 7,7′-(2,2′-dichloro-[1,1′-biphenyl]-3,3′-diyl)bis(3-methyl-2-(((R)-pyrrolidin-2-yl)methyl)pyrrolo[1,2-a]pyrazin-1(2H)-one)], the 50% inhibitory concentration (IC50) on PD-1/PD-L1 lay within 10 to 100 nM. For the compound `Cc1cn2nc(-c3cccc(-c4cccc(-c5cc6c(=O)n(CCN[C@@H](CCO)C(=O)O)c(C)cn6n5)c4Cl)c3Cl)cc2c(=O)n1CCN[C@@H](CCO)C(=O)O` [Compound 62, (2S,2'S)-2,2′-((((2,2′-dichloro-[1,1′-biphenyl]-3,3′-diyl)bis(6-methyl-4-oxopyrazolo[1,5-a]pyrazine-2,5(4H)-diyl))bis(ethane-2,1-diyl))bis(azanediyl))bis(4-hydroxybutanoic acid)], on PD-1/PD-L1, the IC50 is 10 to 100 nM.

Compound `O=C1CC[C@@H](Cn2c(C3CC3)cn3nc(-c4cccc(-c5cccc(-c6cc7c(=O)n(C[C@@H]8CCC(=O)N8)c(C8CC8)cn7n6)c5Cl)c4Cl)cc3c2=O)N1` [Compound 32, 2,2′-(2,2′-dichloro-[1,1′-biphenyl]-3,3′-diyl)bis(6-cyclopropyl-5-(((S)-5-oxopyrrolidin-2-yl)methyl)pyrazolo[1,5-a]pyrazin-4(5H)-one)] came in with a 50% inhibitory concentration (IC50) at PD-1/PD-L1 of 10 to 100 nM. Still for that read-out and setting: for `O=C(O)CCC(O)Cn1cnn2cc(-c3cccc(-c4cccc(-c5cc6c(=O)n(CC(O)CCC(=O)O)cnn6c5)c4Cl)c3Cl)cc2c1=O` (centres unmarked) [Compound 28, 5,5′-((2,2′-dichloro-[1,1′-biphenyl]-3,3′-diyl)bis(4-oxopyrrolo[2,1-f][1,2,4]triazine-6,3(4H)-diyl))bis(4-hydroxypentanoic acid)] the value was not below 100 nM; for `Cc1cn2nc(-c3cccc(-c4cccc(-c5cc6c(=O)n(CCN7C[C@@H](O)CC[C@H]7C(=O)O)c(C)cn6n5)c4Cl)c3Cl)cc2c(=O)n1CCN1C[C@@H](O)CC[C@H]1C(=O)O` [Compound 84, (2S,2'S,5S,5'S)-1,1′-(((2,2′-dichloro-[1,1′-biphenyl]-3,3′-diyl)bis(6-methyl-4-oxopyrazolo[1,5-a]pyrazine-2,5(4H)-diyl))bis(ethane-2,1-diyl))bis(5-hydroxypiperidine-2-carboxylic acid)], not below 100 nM; for `O=C1CC(Cn2cnn3cc(-c4cccc(-c5cccc(-c6cc7c(=O)n(CC8CNC(=O)C8)cnn7c6)c5Cl)c4Cl)cc3c2=O)CN1` (centres unmarked) [Compound 18, 6,6′-(2,2′-dichloro-[1,1′-biphenyl]-3,3′-diyl)bis(3-((5-oxopyrrolidin-3-yl)methyl)pyrrolo[2,1-f][1,2,4]triazin-4(3H)-one)], 10 to 100 nM.

As to `Cc1cn2cc(-c3cccc(-c4cccc(-c5cc6c(=O)n(CCN7C[C@@H](O)C[C@H]7C(=O)O)c(C)cn6c5)c4Cl)c3Cl)cc2c(=O)n1CCN1C[C@@H](O)C[C@H]1C(=O)O` [Compound 50, (2S,2'S,4S,4'S)-1,1′-(((2,2′-dichloro-[1,1′-biphenyl]-3,3′-diyl)bis(3-methyl-1-oxopyrrolo[1,2-a]pyrazine-7,2(1H)-diyl))bis(ethane-2,1-diyl))bis(4-hydroxypyrrolidine-2-carboxylic acid)], the IC50 on PD-1/PD-L1 lay in the range of 10 to 100 nM.

Take `Cc1cn2cc(-c3cccc(-c4cccc(-c5cc6c(=O)n(C[C@@H]7CCCN7)c(C)cn6c5)c4Cl)c3Cl)cc2c(=O)n1C[C@@H]1CCCN1` [Compound 38, 7,7′-(2,2′-dichloro-[1,1′-biphenyl]-3,3′-diyl)bis(3-methyl-2-(((S)-pyrrolidin-2-yl)methyl)pyrrolo[1,2-a]pyrazin-1(2H)-one)]: on PD-1/PD-L1, the IC50 is 10 to 100 nM. Regarding `Cc1cn2nc(-c3cccc(-c4cccc(-c5cc6c(=O)n(CCCN[C@@H](CO)C(=O)O)c(C)cn6n5)c4Cl)c3Cl)cc2c(=O)n1CCCN[C@@H](CO)C(=O)O` [Compound 70, (2S,2'S)-2,2′-((((2,2′-dichloro-[1,1′-biphenyl]-3,3′-diyl)bis(6-methyl-4-oxopyrazolo[1,5-a]pyrazine-2,5(4H)-diyl))bis(propane-3,1-diyl))bis(azanediyl))bis(3-hydroxypropanoic acid)], the IC50 at PD-1/PD-L1 lay in the range of 10 to 100 nM.
